The values below come from US11655235B2, “Pyrrolidine and piperidine compounds” (YUHAN CORPORATION, priority 2019, dated 2023).

A word on the IC50: it is the concentration that gives 50% inhibition.

Read-outs that look alike come from different tables or passages of the source.

Common to all, as to type: biochemical
For one test, the target named is T1, recombinant human PREP (Homo sapiens, UniProt P48147).
T1 construct: purchased R&D System
T1 sequence (P48147 1-710): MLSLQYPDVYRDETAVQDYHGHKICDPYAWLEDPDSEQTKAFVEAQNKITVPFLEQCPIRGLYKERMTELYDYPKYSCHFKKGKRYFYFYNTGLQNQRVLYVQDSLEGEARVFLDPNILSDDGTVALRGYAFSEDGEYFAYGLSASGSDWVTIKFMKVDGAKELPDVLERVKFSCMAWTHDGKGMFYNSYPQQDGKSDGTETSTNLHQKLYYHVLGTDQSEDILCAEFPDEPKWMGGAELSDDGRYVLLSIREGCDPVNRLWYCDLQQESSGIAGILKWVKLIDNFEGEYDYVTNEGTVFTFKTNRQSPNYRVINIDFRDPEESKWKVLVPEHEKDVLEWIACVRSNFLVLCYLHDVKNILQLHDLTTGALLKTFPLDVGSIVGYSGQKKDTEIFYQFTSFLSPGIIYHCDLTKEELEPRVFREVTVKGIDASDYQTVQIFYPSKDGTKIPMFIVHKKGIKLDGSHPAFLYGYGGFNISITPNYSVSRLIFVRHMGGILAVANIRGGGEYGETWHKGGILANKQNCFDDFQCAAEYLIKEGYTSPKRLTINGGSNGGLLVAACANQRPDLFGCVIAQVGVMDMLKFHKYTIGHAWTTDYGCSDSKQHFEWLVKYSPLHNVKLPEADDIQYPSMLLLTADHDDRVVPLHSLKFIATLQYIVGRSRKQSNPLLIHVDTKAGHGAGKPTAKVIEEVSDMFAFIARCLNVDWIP
The test is described as follows: PREP inhibition, fluorogenic substrate Z-Gly-Pro-AMC. The settings on record: Inhibitory Activity (IC50, nM) PREP. The method, boiled down:
(§1)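 Enzyme per reaction: 50 ng DPP9, 20 ng DPP8, 10 ng each DPP7 and PREP. Compounds were serially diluted (8 points, up to 0.5% DMSO) and incubated at 25 °C.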

The target in another test is T2, recombinant human DPP8 (Homo sapiens, UniProt Q6V1X1).
T2 construct: purchased PBS Bioscience
The test is described as follows: DPP8 inhibition, fluorogenic substrate Z-Ala-Pro-AMC. The method, boiled down:
as §1

A further test deals with T3, recombinant human DPP7 (Homo sapiens, UniProt Q9UHL4).
T3 construct: purchased R&D Systems
The test can be described thus: DPP7 inhibition, fluorogenic substrate Lys-Pro-AMC. The method, boiled down:
as §1

The target of the next test is T4, recombinant human DPP9 (Homo sapiens, UniProt Q86TI2).
T4 construct: purchased R&D Systems
The test is described as follows: DPP9 inhibition, fluorogenic substrate H-Gly-Pro-AMC. In short, it runs like this: as §1

For a further test, the target named is T5, Recombinant human FAP (Homo sapiens, UniProt Q12884).
T5 construct: purchased R&D systems
T5 sequence (Q12884 1-760): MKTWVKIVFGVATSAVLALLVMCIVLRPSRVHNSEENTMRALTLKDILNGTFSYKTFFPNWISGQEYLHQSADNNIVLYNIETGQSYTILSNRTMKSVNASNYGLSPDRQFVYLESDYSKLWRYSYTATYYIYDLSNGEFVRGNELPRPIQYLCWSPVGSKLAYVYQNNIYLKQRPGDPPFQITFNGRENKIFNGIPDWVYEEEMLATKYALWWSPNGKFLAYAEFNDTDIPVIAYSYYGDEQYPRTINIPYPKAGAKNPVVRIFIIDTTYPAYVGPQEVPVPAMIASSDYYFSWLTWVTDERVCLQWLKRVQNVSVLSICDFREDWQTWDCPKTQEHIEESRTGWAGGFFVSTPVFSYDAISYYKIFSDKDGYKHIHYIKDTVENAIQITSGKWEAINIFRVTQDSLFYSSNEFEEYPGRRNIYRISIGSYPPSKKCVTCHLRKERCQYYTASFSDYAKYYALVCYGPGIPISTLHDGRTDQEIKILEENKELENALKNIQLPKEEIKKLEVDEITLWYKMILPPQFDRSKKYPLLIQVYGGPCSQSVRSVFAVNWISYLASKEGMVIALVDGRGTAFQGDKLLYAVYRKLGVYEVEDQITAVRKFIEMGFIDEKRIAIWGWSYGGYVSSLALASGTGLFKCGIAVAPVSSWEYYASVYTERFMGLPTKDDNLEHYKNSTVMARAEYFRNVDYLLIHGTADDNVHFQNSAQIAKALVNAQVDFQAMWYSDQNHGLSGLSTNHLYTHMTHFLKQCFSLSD
The test is described as follows: FAP inhibition, fluorogenic substrate Z-Gly-Pro-AMC. In short, it runs like this: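 Recombinant human FAP, 10 ng per reaction, in 50 mM Tris pH 7.5 with 1 M NaCl and 1 mg/ml BSA at 25° C; substrate Z-Gly-Pro-AMC, ≤0.1% DMSO. AMC fluorescence read at ex 380/em 460 nm; % signal-rate decrease vs no-inhibitor control, 8-point curves fitted to a four-parameter logistic for IC50.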

Another test addresses DPP4 (Homo sapiens, UniProt P27487). The test can be described thus: DPP4 inhibition, fluorogenic substrate H-Gly-Pro-AMC. Also on record: purchased R&D Systems.
Where [1] appears, read: 25° C., Z-Gly-Pro-AMC substrate.
Setting [2] is: 25° C., Z-Ala-Pro-AMC substrate.
The mark [3] stands for this setting: 25° C., H-Gly-Pro-AMC substrate.
[4] abbreviates: recombinant human FAP, substrate Z-Gly-Pro-AMC.

DPP4, sequence (P27487 whole entry): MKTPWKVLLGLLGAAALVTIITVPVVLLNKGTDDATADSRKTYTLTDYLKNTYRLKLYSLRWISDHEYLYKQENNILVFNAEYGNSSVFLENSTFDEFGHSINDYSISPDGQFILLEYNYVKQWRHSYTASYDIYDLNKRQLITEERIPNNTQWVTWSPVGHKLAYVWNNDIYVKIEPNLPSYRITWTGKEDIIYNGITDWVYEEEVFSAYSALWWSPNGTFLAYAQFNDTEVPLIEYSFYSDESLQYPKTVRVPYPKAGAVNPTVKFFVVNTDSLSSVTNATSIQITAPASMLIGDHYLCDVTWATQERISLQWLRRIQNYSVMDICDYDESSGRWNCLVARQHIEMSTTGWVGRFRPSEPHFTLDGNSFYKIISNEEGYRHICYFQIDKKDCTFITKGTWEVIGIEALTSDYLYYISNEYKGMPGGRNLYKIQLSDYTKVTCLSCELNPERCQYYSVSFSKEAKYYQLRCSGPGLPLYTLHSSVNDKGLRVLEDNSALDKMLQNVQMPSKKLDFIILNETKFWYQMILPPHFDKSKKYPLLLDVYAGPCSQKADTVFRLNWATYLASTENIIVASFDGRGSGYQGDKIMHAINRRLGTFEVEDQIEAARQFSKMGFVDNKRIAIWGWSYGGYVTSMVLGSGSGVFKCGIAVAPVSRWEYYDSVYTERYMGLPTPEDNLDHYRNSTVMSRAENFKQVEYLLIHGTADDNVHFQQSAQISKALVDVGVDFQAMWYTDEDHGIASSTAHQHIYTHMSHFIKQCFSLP
T4 sequence (Q86TI2 whole entry): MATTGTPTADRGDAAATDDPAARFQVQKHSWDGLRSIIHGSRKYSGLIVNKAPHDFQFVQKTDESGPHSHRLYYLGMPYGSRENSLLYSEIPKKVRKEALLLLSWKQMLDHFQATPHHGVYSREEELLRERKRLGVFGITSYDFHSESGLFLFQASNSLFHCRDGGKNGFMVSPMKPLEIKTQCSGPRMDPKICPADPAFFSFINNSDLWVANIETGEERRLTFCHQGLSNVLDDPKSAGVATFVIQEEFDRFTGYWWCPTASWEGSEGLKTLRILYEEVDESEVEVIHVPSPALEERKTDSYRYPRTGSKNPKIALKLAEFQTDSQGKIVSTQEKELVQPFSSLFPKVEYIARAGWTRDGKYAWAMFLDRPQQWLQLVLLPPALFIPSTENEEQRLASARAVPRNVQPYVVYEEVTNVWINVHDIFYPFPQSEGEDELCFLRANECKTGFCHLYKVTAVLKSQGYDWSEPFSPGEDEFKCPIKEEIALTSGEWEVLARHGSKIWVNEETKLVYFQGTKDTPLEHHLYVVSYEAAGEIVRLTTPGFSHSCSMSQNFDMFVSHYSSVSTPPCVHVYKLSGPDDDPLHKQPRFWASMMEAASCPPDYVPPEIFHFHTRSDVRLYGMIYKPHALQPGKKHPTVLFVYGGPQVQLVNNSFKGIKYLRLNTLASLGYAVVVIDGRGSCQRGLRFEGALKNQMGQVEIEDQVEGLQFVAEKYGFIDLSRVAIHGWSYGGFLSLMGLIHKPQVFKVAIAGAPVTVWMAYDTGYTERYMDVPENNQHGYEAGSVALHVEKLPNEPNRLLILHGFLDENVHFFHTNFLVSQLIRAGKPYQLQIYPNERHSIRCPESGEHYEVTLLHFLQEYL
T2 sequence (Q6V1X1 whole entry): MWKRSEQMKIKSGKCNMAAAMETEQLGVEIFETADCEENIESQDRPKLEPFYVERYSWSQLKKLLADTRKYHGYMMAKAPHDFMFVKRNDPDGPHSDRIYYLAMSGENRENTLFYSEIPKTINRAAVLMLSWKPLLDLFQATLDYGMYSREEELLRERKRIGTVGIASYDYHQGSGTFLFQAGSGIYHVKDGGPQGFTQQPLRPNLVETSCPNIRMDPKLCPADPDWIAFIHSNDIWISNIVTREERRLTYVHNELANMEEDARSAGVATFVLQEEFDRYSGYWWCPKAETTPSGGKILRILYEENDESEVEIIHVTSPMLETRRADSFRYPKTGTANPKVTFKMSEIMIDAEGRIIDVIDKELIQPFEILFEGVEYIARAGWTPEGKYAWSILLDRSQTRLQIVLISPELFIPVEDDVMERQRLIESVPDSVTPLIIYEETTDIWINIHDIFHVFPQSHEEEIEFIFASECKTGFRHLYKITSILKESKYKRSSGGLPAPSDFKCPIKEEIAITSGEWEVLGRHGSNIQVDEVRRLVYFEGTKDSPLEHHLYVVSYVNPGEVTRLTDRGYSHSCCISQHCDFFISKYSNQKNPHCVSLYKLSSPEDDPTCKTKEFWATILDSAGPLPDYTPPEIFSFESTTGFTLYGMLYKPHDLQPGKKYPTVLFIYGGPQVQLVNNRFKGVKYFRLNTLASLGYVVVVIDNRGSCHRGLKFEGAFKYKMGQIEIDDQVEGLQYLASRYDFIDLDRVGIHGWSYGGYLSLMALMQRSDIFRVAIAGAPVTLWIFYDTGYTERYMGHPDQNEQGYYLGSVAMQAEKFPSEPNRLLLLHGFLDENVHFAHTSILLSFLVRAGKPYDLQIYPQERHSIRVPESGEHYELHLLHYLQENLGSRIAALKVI

Regarding `COc1cc2nccc(O[C@H]3CCN(CC(=O)N4CCC[C@H]4C#N)C3)c2cc1OC` [Example 101, (S)-1-(2-((S)-3-((6,7-dimethoxyquinolin-4-yl)oxy)pyrrolidin-1-yl)acetyl)pyrrolidine-2-carbonitrile], the IC50 was 3020 nM at recombinant human PREP (setting [1]); > 100 µM at recombinant human DPP8 (setting [2]); 0.626 µM on recombinant human DPP7; > 100 µM at recombinant human DPP9 (setting [3]); 0.00057 µM at Recombinant human FAP (setting [1]); > 1 µM against DPP4 (setting [3]).
As for `COc1ccc2c(C(=O)N[C@H]3CCN(CC(=O)N4C[C@@H](F)C[C@H]4C#N)C3)coc2c1` [Example 136, 6-methoxy-N-[(3S)-1-[2-oxo-2-[(2S,4S)-2-cyano-4-fluoro-pyrrolidin-1-yl]ethyl]pyrrolidin-3-yl]benzofuran-3-carboxamide], the IC50 was determined as 5150 nM on recombinant human PREP (setting [1]); 22.3 µM at recombinant human DPP8 (setting [2]); 1.95 µM on recombinant human DPP7; 14.5 µM at recombinant human DPP9 (setting [3]); 0.0123 µM at Recombinant human FAP (setting [1]); 9.03 µM on DPP4 (setting [3]).
In the case of `Cc1cccc2c(NC3CCN(CC(=O)N4CCC[C@H]4C#N)CC3)nc(Cl)nc12` [Example 359, (2S)-1-[2-[4-[(2-chloro-8-methyl-quinazolin-4-yl)amino]-1-piperidyl]acetyl]pyrrolidine-2-carbonitrile], the IC50 at recombinant human PREP (recombinant human PREP) was 6000 nM; on recombinant human DPP8 (recombinant human DPP8) it was 8.22 µM; at recombinant human DPP7 (recombinant human DPP7) it was 0.971 µM; at recombinant human DPP9 (recombinant human DPP9) it was 31.3 µM; on Recombinant human FAP (setting [4]) it was 0.0023 µM; at DPP4 (recombinant human DPP4), > 10 µM.
Turning to `N#C[C@@H]1CCCN1C(=O)CN1CC[C@H](Nc2ccc3ncccc3c2)C1` [Example 230, (2S)-1-[2-[(3S)-3-(6-quinolylamino)pyrrolidin-1-yl]acetyl]pyrrolidine-2-carbonitrile], the 50% inhibitory concentration (IC50) at recombinant human PREP (recombinant human PREP) was 8770 nM; at recombinant human DPP8 (recombinant human DPP8), > 100 µM; at recombinant human DPP7 (recombinant human DPP7) it was 1.36 µM; on recombinant human DPP9 (recombinant human DPP9), 17.6 µM; on Recombinant human FAP (setting [4]), 0.0093 µM; at DPP4 (recombinant human DPP4), > 10 µM.
Take `N#C[C@@H]1C[C@H](F)CN1C(=O)CN1CCC(Nc2cccc3sccc23)CC1` [Example 336, (2S,4S)-1-(2-(4-(benzo[b]thiophen-4-ylamino)piperidin-1-yl)acetyl)-4-fluoropyrrolidine-2-carbonitrile]: the IC50 on recombinant human PREP (recombinant human PREP) was found to be 8500 nM; on recombinant human DPP8 (recombinant human DPP8), 11.5 µM; on recombinant human DPP7 (recombinant human DPP7), 1.19 µM; on recombinant human DPP9 (recombinant human DPP9) it was 6.52 µM; at Recombinant human FAP (setting [4]), 0.0593 µM; at DPP4 (recombinant human DPP4), 7.39 µM.
Take `CN(c1ccc2ncccc2c1)C1CCN(CC(=O)N2C[C@@H](F)C[C@H]2C#N)CC1` [Example 315, (2S,4S)-4-fluoro-1-[2-[4-[methyl(6-quinolyl)amino]-1-piperidyl]acetyl]pyrrolidine-2-carbonitrile]: the IC50 on recombinant human PREP (recombinant human PREP) is 134 nM; on recombinant human DPP8 (recombinant human DPP8), > 10 µM; at recombinant human DPP7 (recombinant human DPP7), 1.05 µM; at recombinant human DPP9 (recombinant human DPP9), 5.77 µM; at Recombinant human FAP (setting [4]) it was 0.0017 µM; at DPP4 (recombinant human DPP4), 9.15 µM.
In the case of `N#C[C@@H]1CC(F)(F)CN1C(=O)CN1CC[C@H](Oc2cccc3[nH]c(=O)ccc23)C1` [Example 108, (S)-4,4-difluoro-1-(2-((S)-3-((2-oxo-1,2-dihydroquinolin-5-yl)oxy)pyrrolidin-1-yl)acetyl)pyrrolidine-2-carbonitrile], the IC50 at recombinant human PREP (setting [1]) was 3150 nM; at recombinant human DPP8 (setting [2]), 6.68 µM; on recombinant human DPP7, 0.0076 µM; at recombinant human DPP9 (setting [3]), 6.3 µM; on Recombinant human FAP (setting [1]), 0.00215 µM; on DPP4 (setting [3]), > 1 µM.
On to `Cc1ccc2ncccc2c1N[C@H]1CCN(CC(=O)N2C[C@@H](F)C[C@H]2C#N)C1` [Example 259, (2S,4S)-4-fluoro-1-[2-[(3S)-3-[(6-methyl-5-quinolyl)amino]pyrrolidin-1-yl]acetyl]pyrrolidine-2-carbonitrile], for which the half-inhibitory concentration (IC50) at recombinant human PREP (recombinant human PREP) amounted to 2470 nM; on recombinant human DPP8 (recombinant human DPP8) it was 18.6 µM; on recombinant human DPP7 (recombinant human DPP7), 3.31 µM; at recombinant human DPP9 (recombinant human DPP9), 8.43 µM; at Recombinant human FAP (setting [4]), 0.0026 µM; on DPP4 (recombinant human DPP4) it was 1.27 µM.
Take `Cc1ccc2ncccc2c1NC1CCN(CC(=O)N2CCC[C@H]2C#N)CC1` [Example 122, (S)-1-(2-(4-((6-methylquinolin-5-yl)amino)piperidin-1-yl)acetyl)pyrrolidine-2-carbonitrile]: the half-inhibitory concentration (IC50) on recombinant human PREP (setting [1]) is 23700 nM; on recombinant human DPP8 (setting [2]) it was > 100 µM; at recombinant human DPP7 it was > 100 µM; on recombinant human DPP9 (setting [3]) it was > 100 µM; on Recombinant human FAP (setting [1]) it was 0.445 µM; at DPP4 (setting [3]), > 10 µM.
Regarding `Cc1cnc2cccc(NC3CCN(CC(=O)N4C[C@@H](F)C[C@H]4C#N)CC3)c2c1` [Example 131, (2S,4S)-4-fluoro-1-(2-(4-((3-methylquinolin-5-yl)amino)piperidin-1-yl)acetyl)pyrrolidine-2-carbonitrile], the IC50 at recombinant human PREP (setting [1]) worked out at 7920 nM; at recombinant human DPP8 (setting [2]), 8.26 µM; at recombinant human DPP7, 0.61 µM; at recombinant human DPP9 (setting [3]) it was 2.78 µM; on Recombinant human FAP (setting [1]), 0.00273 µM; at DPP4 (setting [3]), 3.45 µM.
For the molecule `N#C[C@@H]1C[C@H](F)CN1C(=O)CN1CC[C@H](Nc2cncc3ccoc23)C1` [Example 28, (2S,4S)-4-fluoro-1-(2-((S)-3-(furo[3,2-c]pyridin-7-ylamino)pyrrolidin-1-yl)acetyl)pyrrolidin-2-carbonitrile], the IC50 at recombinant human PREP (setting [1]) turned out to be 6600 nM; at recombinant human DPP8 (setting [2]) it was 18.6 µM; on recombinant human DPP7 it was 0.346 µM; on recombinant human DPP9 (setting [3]), 8.24 µM; at Recombinant human FAP (setting [1]) it was 0.00182 µM; against DPP4 (setting [3]) it was 2.63 µM.
Take `N#C[C@@H]1C[C@H](F)CN1C(=O)CN1CCC(Nc2cccc3cnccc23)CC1` [Example 340, (2S,4S)-4-fluoro-1-[2-[4-(5-isoquinolylamino)-1-piperidyl]acetyl]pyrrolidine-2-carbonitrile]: the IC50 turned out to be 7850 nM at recombinant human PREP (recombinant human PREP); 2.4 µM on recombinant human DPP8 (recombinant human DPP8); 0.523 µM on recombinant human DPP7 (recombinant human DPP7); 5.31 µM at recombinant human DPP9 (recombinant human DPP9); 0.0051 µM on Recombinant human FAP (setting [4]); 6.5 µM on DPP4 (recombinant human DPP4).
For the molecule `COc1ccc2nccc(O[C@H]3CCN(CC(=O)N4C[C@@H](F)C[C@H]4C#N)C3)c2c1` [Example 299, (2S,4S)-4-fluoro-1-[2-[(3S)-3-[(6-methoxy-4-quinolyl)oxy]pyrrolidin-1-yl]acetyl]pyrrolidine-2-carbonitrile], the IC50 was 1410 nM on recombinant human PREP (recombinant human PREP); 13.1 µM at recombinant human DPP8 (recombinant human DPP8); 9.84 µM on recombinant human DPP7 (recombinant human DPP7); 8.19 µM at recombinant human DPP9 (recombinant human DPP9); 0.0017 µM on Recombinant human FAP (setting [4]); > 10 µM on DPP4 (recombinant human DPP4).
For `N#C[C@@H]1C[C@H](F)CN1C(=O)CN1CCC(Nc2ccnc3ccc(Cl)cc23)CC1` [Example 338, (2S,4S)-1-[2-[4-[(6-chloro-4-quinolyl)amino]-1-piperidyl]acetyl]-4-fluoro-pyrrolidine-2-carbonitrile], the IC50 at recombinant human PREP (recombinant human PREP) came to 1450 nM; at recombinant human DPP8 (recombinant human DPP8) it was 8.33 µM; on recombinant human DPP7 (recombinant human DPP7), 0.809 µM; at recombinant human DPP9 (recombinant human DPP9), 2.94 µM; on Recombinant human FAP (setting [4]), 0.0065 µM; on DPP4 (recombinant human DPP4), 6.89 µM.
